Reference: publication PMC4043709 (Drug Design, Development and Therapy, 2014)

Biological target: T1, ABCG2 (Homo sapiens, UniProt Q9UNQ0)
T1 sequence (Q9UNQ0 1-655): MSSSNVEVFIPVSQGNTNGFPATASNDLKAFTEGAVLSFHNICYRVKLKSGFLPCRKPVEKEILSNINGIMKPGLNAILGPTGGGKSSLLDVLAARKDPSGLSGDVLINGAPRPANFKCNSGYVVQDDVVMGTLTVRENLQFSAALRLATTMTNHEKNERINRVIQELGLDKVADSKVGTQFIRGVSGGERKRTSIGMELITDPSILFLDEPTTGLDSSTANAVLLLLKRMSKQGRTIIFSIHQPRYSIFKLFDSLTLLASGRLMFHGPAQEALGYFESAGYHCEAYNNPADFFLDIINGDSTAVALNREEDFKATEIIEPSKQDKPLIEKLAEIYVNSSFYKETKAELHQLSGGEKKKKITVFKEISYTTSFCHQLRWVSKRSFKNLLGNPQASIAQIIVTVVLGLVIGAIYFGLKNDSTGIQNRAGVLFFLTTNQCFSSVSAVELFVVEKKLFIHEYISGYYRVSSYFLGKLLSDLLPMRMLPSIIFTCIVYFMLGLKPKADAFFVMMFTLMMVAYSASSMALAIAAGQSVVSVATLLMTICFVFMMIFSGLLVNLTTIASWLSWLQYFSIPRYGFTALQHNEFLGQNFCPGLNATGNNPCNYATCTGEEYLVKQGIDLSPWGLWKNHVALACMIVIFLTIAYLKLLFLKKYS
Test: ABCG2-mediated mitoxantrone efflux
Assay type: cell-based
Conditions: 6 versus 3; 10 versus 5

Structure (SMILES) | fold decrease of inhibition caused by hydroxyl group at 4′ position
COc1cc(C(=O)/C=C/c2ccc3nccnc3c2)ccc1O [Compound 6, (2E)-1-(3′-methoxy,4′-hydroxy-phenyl)-3-(quinoxalin-6-yl)-2-propen-1-one] | 8 fold
COc1cc(C(=O)/C=C/c2ccc3nccnc3c2)cc(OC)c1O [Compound 10, (2E)-1-(3′,5′-dimethoxy,4′-hydroxy-phenyl)-3-(quinoxalin-6-yl)-2-propen-1-one] | 5 fold
